“Also recorded” adds a separate entry of the source. Read-outs that look alike come from different tables or passages of the source.
Experiments:
[1] = biological target: T1, human TRPV1 (Homo sapiens, UniProt Q8NER1); assay: In vitro Ca2+ flux assay in human TRPV1 transfected HEK 293 cells; type: cell-based; settings: read-out: TRPV1 EC50
T1 construct: DYK (FLAG) tag from vector pcDNA3.1+/C-(K)DYK (C); host or cells: FreeStyle 293-F cells (HEK 293), transient transfection

[2] = biological target: T2, human TRPV3 (Homo sapiens, UniProt Q8NET8); assay: In vitro Ca2+ flux counter-screen in human TRPV3 overexpressing cells; type: cell-based; settings: counter-screen; read-out: TRPV3 EC50
T2 construct: expressed in transfected cells; host or cells: overexpressing cells
T2 sequence (Q8NET8 1-790): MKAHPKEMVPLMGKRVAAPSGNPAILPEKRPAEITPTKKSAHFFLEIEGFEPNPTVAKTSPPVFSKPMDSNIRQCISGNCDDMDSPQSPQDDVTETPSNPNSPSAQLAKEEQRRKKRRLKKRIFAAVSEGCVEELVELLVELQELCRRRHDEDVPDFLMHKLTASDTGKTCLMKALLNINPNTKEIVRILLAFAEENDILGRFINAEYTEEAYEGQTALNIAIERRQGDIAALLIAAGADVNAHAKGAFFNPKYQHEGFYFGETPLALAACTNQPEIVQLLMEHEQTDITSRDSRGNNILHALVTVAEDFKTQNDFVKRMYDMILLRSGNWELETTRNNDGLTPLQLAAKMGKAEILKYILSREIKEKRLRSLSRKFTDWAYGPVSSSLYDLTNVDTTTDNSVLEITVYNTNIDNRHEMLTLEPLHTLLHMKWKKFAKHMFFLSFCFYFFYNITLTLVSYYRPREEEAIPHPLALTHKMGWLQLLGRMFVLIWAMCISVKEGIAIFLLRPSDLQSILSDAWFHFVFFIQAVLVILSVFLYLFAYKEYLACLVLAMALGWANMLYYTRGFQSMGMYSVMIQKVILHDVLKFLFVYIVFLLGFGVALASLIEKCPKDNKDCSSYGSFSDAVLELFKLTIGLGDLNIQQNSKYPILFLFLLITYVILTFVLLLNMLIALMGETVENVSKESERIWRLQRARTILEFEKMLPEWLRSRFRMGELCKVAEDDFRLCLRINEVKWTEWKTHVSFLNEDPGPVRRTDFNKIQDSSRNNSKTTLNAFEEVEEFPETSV

[3] = biological target: T3, human TRPA1 (Homo sapiens, UniProt O75762); assay: In vitro Ca2+ flux counter-screen in human TRPA1 overexpressing cells; type: cell-based; settings: counter-screen; read-out: TRPA1 EC50
T3 construct: expressed in transfected cells; host or cells: overexpressing cells
T3 sequence (O75762 whole entry): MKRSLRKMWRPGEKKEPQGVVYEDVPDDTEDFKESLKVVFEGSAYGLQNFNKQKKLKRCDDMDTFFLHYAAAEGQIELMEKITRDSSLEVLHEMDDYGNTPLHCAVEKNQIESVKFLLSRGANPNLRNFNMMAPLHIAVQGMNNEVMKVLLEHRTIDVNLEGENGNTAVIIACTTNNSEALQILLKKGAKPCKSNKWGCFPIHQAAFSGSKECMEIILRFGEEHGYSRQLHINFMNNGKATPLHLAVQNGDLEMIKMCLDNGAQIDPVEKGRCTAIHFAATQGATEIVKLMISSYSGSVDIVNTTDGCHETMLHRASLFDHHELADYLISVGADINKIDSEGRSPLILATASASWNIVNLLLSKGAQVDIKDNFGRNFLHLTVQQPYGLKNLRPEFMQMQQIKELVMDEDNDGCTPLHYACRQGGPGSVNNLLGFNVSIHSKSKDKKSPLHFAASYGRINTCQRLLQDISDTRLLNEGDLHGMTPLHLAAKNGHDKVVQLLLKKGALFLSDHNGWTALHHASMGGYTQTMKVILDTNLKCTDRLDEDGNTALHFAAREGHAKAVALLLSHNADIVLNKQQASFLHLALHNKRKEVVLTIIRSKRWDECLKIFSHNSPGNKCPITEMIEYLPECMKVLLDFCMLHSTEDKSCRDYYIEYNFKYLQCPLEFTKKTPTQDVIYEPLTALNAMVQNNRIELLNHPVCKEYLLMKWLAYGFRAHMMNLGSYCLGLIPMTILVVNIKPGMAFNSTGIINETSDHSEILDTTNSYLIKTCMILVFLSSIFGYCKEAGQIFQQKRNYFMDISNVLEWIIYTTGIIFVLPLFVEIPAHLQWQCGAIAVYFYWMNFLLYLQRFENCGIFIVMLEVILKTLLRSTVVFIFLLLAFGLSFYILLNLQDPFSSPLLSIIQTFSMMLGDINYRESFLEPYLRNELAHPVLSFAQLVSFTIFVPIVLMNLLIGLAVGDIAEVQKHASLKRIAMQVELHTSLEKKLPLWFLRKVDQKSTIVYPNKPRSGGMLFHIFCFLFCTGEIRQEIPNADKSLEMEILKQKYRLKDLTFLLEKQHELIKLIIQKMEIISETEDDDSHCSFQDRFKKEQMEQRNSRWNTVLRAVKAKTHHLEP

[4] = biological target: T4, TRPV1 (Mus musculus, UniProt Q704Y3); assay: Ca2+ imaging of primary mouse dorsal root ganglion (DRG) neurons, TRPV1 desensitization; type: cell-based; settings: then capsaicin 0.5 μM
T4 construct: DRG was isolated from male and female mice expressing GCaMP6f in neurons; endogenous in cells; host or cells: dissociated primary DRG neurons from GCaMP6f-expressing mice
T4 sequence (Q704Y3 whole entry): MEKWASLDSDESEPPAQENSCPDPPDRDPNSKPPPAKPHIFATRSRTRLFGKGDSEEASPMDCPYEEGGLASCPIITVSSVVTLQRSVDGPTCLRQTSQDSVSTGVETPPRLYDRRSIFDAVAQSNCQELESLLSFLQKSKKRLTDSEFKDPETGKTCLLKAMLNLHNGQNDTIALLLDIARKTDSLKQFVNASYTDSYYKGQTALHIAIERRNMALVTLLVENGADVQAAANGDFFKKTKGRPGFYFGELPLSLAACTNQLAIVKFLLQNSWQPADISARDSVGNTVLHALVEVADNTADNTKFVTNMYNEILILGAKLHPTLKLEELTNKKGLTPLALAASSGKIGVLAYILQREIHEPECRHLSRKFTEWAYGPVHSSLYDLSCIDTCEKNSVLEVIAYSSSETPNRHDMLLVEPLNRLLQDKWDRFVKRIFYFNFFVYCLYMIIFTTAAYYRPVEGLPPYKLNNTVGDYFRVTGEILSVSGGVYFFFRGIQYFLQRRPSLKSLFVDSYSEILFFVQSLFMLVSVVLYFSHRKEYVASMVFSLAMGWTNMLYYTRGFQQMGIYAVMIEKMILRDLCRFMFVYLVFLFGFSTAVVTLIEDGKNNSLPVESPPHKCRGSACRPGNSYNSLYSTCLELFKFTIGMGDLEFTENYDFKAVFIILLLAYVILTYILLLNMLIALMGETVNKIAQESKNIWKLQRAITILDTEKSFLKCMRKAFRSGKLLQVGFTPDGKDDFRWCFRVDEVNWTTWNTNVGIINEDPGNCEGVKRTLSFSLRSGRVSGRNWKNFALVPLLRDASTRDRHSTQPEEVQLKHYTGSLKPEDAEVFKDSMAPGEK

[5] = Operant Pain Tolerance Assay; type: in vivo; settings: intraplantar
Protocol: Model 3—The ability of YB-16 to increase pain tolerance was tested using a newly published Operant Pain Tolerance Assay (eNeuro 2020, 7, ENEURO.0210-19.2020). In the assay, mice were trained to seek a sucrose reward that was on a hot 42° C. plate (versus no reward on a neutral 30° C. plate). It was noticed that intraplantar YB-16 treated mice with paw inflammatory injury [induced by Complete Freund's adjuvant (CFA) 24 hrs prior to treatment] trended to spend 145% more time on the hot side of the assay but not necessarily additional time near the sucrose bottle compared to vehicle treated mice (FIG. 10B).

[6] = system: MDA-MB-231; assay: Human cancer cell growth inhibition assay (ATP assay), MDA-MB-231; type: cell-based; settings: Homo sapiens, MDA-MB-231, 96 h; 4 days; Means±SEM from three independent experiments; read-out: MDA-MB-231, IC50
[7] = system: NCI-H460; assay: Human cancer cell growth inhibition assay (ATP assay), NCI-H460; type: cell-based; settings: Homo sapiens, NCI-H460, 96 h; 4 days; Means±SEM from three independent experiments; read-out: NCl-H460, IC50
[8] = system: OVCAR-8; assay: Human cancer cell growth inhibition assay (ATP assay), OVCAR-8; type: cell-based; settings: Homo sapiens, OVCAR-8, 96 h; 4 days; Means±SEM from three independent experiments; read-out: OVCAR-8, IC50
[9] = both, mouse, in vivo, 1 min
[10] = set-up: decrease in the second phase of the formalin test: dose or concentration left out as unconfirmed; settings: intraplantar
[11] = SubQ 6 mg/kg
[12] = Mouse liver microsome stability; type: in vitro ADME; settings: liver microsomes, C57BL6 mouse liver microsome
[13] = In vivo mouse PK; settings: IV 0.4 mg/kg, C57BL6 mouse
[14] = system: MDA-MB-231 cell invasion; assay: Cancer cell invasion assay, MDA-MB-231; type: cell-based, human; settings: 24 h
Protocol: A cancer cell invasion assay was developed based on literature protocols (Methods 2005, 37, 208; EMBO J 2002, 21, 6289; Cellular Signalling 2012, 24, 1276.). Membrane matrix gel (Cat #A1413201, ThermoFisher) was diluted in ice-cold, serum-free RPMI 1640 Medium (Cat #31800022, ThermoFisher) at a concentration of 0.5-0.6 mg/mL. Then it was added to the upper compartment (100 μL per cup) of millicell inserts (Cat #PI8P01250, ThermoFisher) placed in a 24-well plate (Part no. 229123, Celltreat). The plate was incubated at 37° C. for 2 h to allow the liquid gel to solidify. RPMI 1640 Medium supplemented with 10% FBS (300 μL) was added to the well of the plate (lower compartment) as attractant, then DMSO or compounds were added. Human cancer cells (1×10^5 cells in 200 μL of RPMI 1640 Medium) were added to the upper compartment of the insert, then DMSO or compounds were added. After the plate was incubated at 37° C. for 24 h, the cells were fixed on the lower side of the insert membrane with 4% formaldehyde and stained with 1% crystal violet (Part no. IS12146, Innovating Science). The invaded cells on the lower side of the filter were counted under an inverted microscope equipped with either a 4× or a 10× objective (FIG. 11). The cell numbers from 5 random views were averaged and plotted as percentage against the DMSO control (FIG. 12A).

[15] = Means±SEM from three independent experiments
[16] = first treatment capsaicin 0.5 μM, YB-11 0.5 μM or YB-16 1.0 μM, paired t-test

T1 sequence (Q8NER1 whole entry): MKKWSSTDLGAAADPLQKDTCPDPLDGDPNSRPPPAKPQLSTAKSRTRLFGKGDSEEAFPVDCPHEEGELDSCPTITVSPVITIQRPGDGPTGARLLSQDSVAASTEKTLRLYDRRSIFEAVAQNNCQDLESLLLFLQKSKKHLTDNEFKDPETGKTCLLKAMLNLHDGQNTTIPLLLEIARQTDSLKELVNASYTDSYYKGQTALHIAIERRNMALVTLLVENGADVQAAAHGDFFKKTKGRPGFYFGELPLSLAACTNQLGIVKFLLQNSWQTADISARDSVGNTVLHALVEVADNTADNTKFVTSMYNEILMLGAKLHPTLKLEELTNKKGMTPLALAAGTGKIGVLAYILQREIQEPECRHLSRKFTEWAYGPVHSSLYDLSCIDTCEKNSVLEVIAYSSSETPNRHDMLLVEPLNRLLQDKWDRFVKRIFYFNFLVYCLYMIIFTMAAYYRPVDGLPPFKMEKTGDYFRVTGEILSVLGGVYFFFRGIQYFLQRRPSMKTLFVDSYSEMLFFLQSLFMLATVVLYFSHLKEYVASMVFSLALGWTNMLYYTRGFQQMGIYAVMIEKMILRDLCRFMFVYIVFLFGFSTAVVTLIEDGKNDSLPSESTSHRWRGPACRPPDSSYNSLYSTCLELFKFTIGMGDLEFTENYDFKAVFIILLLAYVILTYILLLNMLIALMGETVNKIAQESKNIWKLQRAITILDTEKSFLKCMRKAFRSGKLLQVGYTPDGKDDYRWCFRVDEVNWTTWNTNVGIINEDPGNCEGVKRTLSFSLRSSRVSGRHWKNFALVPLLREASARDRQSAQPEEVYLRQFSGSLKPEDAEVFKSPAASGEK

Row | Structure (SMILES) | EC50 [1, 15] | EC50 [2] | EC50 [3] | IC50 [6] | IC50 [7] | IC50 [8] | MPP [9] | animal death and sedation in formalin test [10] | also measured
1 | COCCOCCOCCC(=O)Oc1ccc(CC(=O)N/C=C/c2ccc(C(F)(F)F)cc2)cc1OC [YB-16] | 0.93 µM | > 10 µM | > 10 µM | > 100 µM | > 100 µM | 16 µM | 0.302 mg/mL | No mice treated with YB-16, YB-11 or YB-2 died or experienced sedative reaction | TRPV1-sensitive neurons showing desensitization ([4]; first treatment 1.0 μM): 79%; area under the curve of the Ca2+ signal of the second (capsaicin) application [4, 16]: statistically significant reduction; also recorded: significantly reduced; max Ca2+ signal of the second (capsaicin) application [4, 16]: statistically significant reduction; also recorded: significantly reduced; sedation in operant pain tolerance assay [5]: inflammatory injury with no sedation; sensitivity to hot plate after inflammatory injury ([5]; paw inflammatory injury (CFA)): trended to reduce sensitivity to hot plate after inflammatory injury compared to vehicle; also recorded: trended to increase time in a 42 °C chamber; also recorded: Trend for reduced sensitivity to hot; decrease in the second phase of the formalin test ([10]; 2 hr prior to formalin): 54%; reduction of formalin first phase behavior ([10]; 2 hr prior to formalin): 60%; MPE (maximum possible effect) increase compared to vehicle [11]: 270%
2 | COc1cc(CNC(=O)CCCC/C=C/C(C)C)ccc1N [YB-2] | < 0.1 µM | > 10 µM | > 10 µM | 342 ± 30 µM | 350 ± 25 µM | 200 ± 22 µM | 0.233 mg/mL | No mice treated with YB-16, YB-11 or YB-2 died or experienced sedative reaction | EC50 ([1]; Table 3 comparison, YB-2 tested as a HCl salt): 0.082 µM; CLint scaled at 2 μM [12]: 1780 mL/min/kg; λz [13]: 4.1 h⁻¹; inhibition of MDA-MB-231 cell invasion [14]: dose-dependently inhibited; effect in the second phase of the formalin test ([10]; 2 hr prior to formalin): significant analgesic effect in the second phase for male mice only; effect on formalin spontaneous pain-like behavior ([10]; 2 hr prior to formalin): did not reduce formalin behavior at any dose tested
